Counter-ions that a name gives are not always drawn.
Target: T1, Human CYP8B1 (Homo sapiens, UniProt Q9UNU6)
T1 construct: tissue Xenotech; host or cells: human liver microsomes
T1 sequence (Q9UNU6 1-501): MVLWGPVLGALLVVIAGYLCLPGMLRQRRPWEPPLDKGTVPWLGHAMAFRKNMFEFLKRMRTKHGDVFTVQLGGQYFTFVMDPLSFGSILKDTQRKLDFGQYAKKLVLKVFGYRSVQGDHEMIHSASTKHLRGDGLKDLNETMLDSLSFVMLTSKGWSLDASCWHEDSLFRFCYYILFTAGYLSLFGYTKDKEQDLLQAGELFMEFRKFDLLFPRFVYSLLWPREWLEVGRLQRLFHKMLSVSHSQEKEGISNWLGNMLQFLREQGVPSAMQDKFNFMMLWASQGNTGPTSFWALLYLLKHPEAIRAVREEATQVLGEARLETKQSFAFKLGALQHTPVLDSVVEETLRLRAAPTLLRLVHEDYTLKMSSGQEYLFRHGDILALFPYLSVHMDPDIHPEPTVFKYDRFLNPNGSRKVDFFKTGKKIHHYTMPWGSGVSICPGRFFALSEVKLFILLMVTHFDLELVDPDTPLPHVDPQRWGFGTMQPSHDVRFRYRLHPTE
Assay: Human Cyp8B1 Liver Microsome Assay
Type: biochemical
Settings: human liver microsomes; substrate 7α-hydroxy-4-cholesten-3-one, NADPH; 30 min pre-incubation, 45 min reaction; RapidFire MS readout
Method: Human Cyp8B1 Liver Microsome Assay To a 384 well polypropylene plate (Corning 3656), 250 nl of inhibitor in 100% DMSO (1.25% final DMSO concentration) was pre-plated using an Echo liquid handler (Labcyte Inc.). Human liver microsomes (Xenotech) were diluted in of 0.1 M phosphate buffer, pH 7.4, at a concentration of 65 μg/ml and 15 μL was added to the 384 well plate. The plates were incubated at ambient room temperature for 30 minutes. After pre-incubation with inhibitor, the reaction was initiated by adding 5 μl of substrate solution (4.0 μM 7α-hydroxy-4-cholesten-3-one(Toronto Research Chemicals), 2 mM of NADPH (Sigma), 0.1 M phosphate buffer (pH 7.4). The reaction was carried out for 45 minutes at ambient room temperature and was quenched by the addition of 50 μl of acetonitrile+0.1% vol/vol formic acid (FA)+300 nM 7α-hydroxy-4-cholesten-3-one-d7 (Toronto Research Chemicals). The plates were sealed and centrifuged at 3000 rpm for 5 minutes. Plates were loaded onto the Agilent RapidFire RF300 HTMS system, wherein samples were sipped for 600 ms, and the sip sensor detection signals the diversion of sample from the loop onto a C4 solid phase extraction (SPE) cartridge, where salts are washed off for 2500 ms with a mobile phase of water with 0.1% vol/vol FA at a flow rate of 1.5 ml/min. The column path is switched, and the sample is eluted off the cartridge and flowed into the mass spectrometer for 3000 ms with a mobile phase of acetonitrile and 0.1% vol/vol FA at a flow rate of 1.25 ml/min. The aspirator tip was washed separately with water and acetonitrile between sample aspirations (each for 600 ms) to minimize carryover contamination. Mass spectrometry was carried out using a Sciex API4000 triple quadrupole mass spectrometer (Applied Biosystems, Concord, ON, Canada) equipped with electrospray ionization (ESI) operated in the positive-ion mode. The product 7α, 12α-dihydroxy-4-cholesten-3-one and internal standard 7α-hydroxy-4-cholsten-3-one-d7 were detected using multiple reaction monitoring (MRM) with Q1/Q3 transitions at m/z 417.3 to 381.3 and m/z 408.3 to 390.3, respectively, with a dwell time of 100 ms and a collision energy of 24 V for each transition. The mass spectrometer used an ESI voltage of 5000 V and a source temperature of 650° C. Extracted ion chromatograms for each transition were integrated and processed using the RapidFire Integrator software. The data for each well were normalized by monitoring product conversion with the ratio of AUCproduct/(AUCinternal standard). The data was then fitted to a four parameter logistic fit using ActivityBase Software to calculate an IC50 of the inhibitor.

| IC50 [nM] | SMILES |
| --- | --- |
| 18 | COc1ccc2nccc(N3CC[C@H](C(=O)N4CCn5c(nnc5C(F)(F)F)C4)[C@H](C)C3)c2n1 [Example 26, [(3S,4S)-1-(6-methoxy-1,5-naphthyridin-4-yl)-3-methylpiperidin-4-yl][3-(trifluoromethyl)-5,6-dihydro[1,2,4]tria-zolo[4,3-a]pyrazin-7(8H)-yl]methanone] |
| 0.25 | C[C@@H]1CN(c2c(F)cnc3cc(C(F)(F)F)ccc23)CC[C@@H]1C(=O)N1CCn2c(nnc2C(F)(F)F)C1 [Example 45, {(3S,4S)-1-[3-fluoro-7-(trifluoromethyl)quinolin-4-yl]-3-methylpiperidin-4-yl}[3-(trifluoromethyl)-5,6-dihydro[1,2,4]triazolo[4,3-a]pyrazin-7(8H)-yl]methanone] |
| 0.4 | C[C@@H]1CN(c2c(Cl)cnc3c2CCN(c2ccccn2)C3)CC[C@@H]1C(=O)N1CCn2c(nnc2C(F)(F)F)C1 [Example 62, ((3S,4S)-1-(3-chloro-7-(pyridin-2-yl)-5,6,7,8-tetrahydro-1,7-naphthyridin-4-yl)-3-methylpiperidin-4-yl)(3-(trifluoromethyl)-5,6-dihydro-[1,2,4]triazolo[4,3-a]pyrazin-7(8H)-yl)methanone] |
| 0.35 | C[C@@H]1CN(c2c(Cl)cnc3cc(OC(F)(F)F)ccc23)CC[C@@H]1C(=O)N1CCn2c(nnc2C(F)(F)F)C1 [Example 36, {(3S,4S)-1-[3-chloro-7-(trifluoromethoxy)quinolin-4-yl]-3-methylpiperidin-4-yl}[3-(trifluoromethyl)-5,6-dihydro[1,2,4]triazolo[4,3-a]pyrazin-7(8H)-yl]methanone] |
| 0.7 | CCNC(=O)c1ccc2c(N3CC[C@H](C(=O)N4CCn5c(nnc5C(F)(F)F)C4)[C@H](C)C3)c(Cl)cnc2c1 [Example 70, 3-chloro-N-ethyl-4-((3 S,4S)-3-methyl-4-(3-(trifluoromethyl)-5,6,7,8-tetrahydro-[1,2,4]triazolo[4,3-a]pyrazine-7-carbonyl)piperidin-1-yl)quinoline-7-carboxamide] |
| 0.4 | C[C@@H]1CN(c2ccnc3cc(-c4ncco4)ccc23)CC[C@@H]1C(=O)N1CCn2c(nnc2C(F)(F)F)C1 [Example 73, ((3S,4S)-3-methyl-1-(7-(oxazol-2-yl)quinolin-4-yl)piperidin-4-yl)(3-(trifluoromethyl)-5,6-dihydro-[1,2,4]triazolo[4,3-a]pyrazin-7(8H)-yl)methanone] |
| 0.7 | C[C@@H]1CN(c2c(Cl)cnc3cc(-c4ncco4)ccc23)CC[C@@H]1C(=O)N1CCn2c(nnc2C(F)(F)F)C1 [Example 76, ((3S,4S)-1-(3-chloro-7-(oxazol-2-yl)quinolin-4-yl)-3-methylpiperidin-4-yl)(3-(trifluoromethyl)-5,6-dihydro-[1,2,4]triazolo[4,3-a]pyrazin-7(8H)-yl)methanone] |
| 145 | Cc1cc(N2CC[C@H](C(=O)N3CCn4c(nnc4C(F)(F)F)C3)[C@H](C)C2)c2cc(F)cc(F)c2n1 [Example 17, [(3S,4S)-1-(6,8-difluoro-2-methylquinolin-4-yl)-3-methylpiperidin-4-yl][3-(trifluoromethyl)-5,6-dihydro[1,2,4]tria-zolo[4,3-a]pyrazin-7(8H)-yl]methanone] |
| 107 | Cc1cc(N2CC[C@H](C(=O)N3CCn4c(nnc4C(F)(F)F)C3)[C@H](C)C2)c2ccc(Cl)cc2n1 [Example 19, 7-chloro-2-methyl-4-[(3S,4S)-3-methyl-4-{[3-(trifluoromethyl)-5,6-dihydro[1,2,4]tria-zolo[4,3-a]pyrazin-7(8H)-yl]carbonyl}piper-idin-1-yl]quinolinium trifluoroacetate] |
| 37 | Cc1nc2ccc(F)cc2c(N2CC[C@H](C(=O)N3CCn4c(nnc4C(F)(F)F)C3)[C@H](C)C2)c1C [Example 16, [(3S,4S)-1-(6-fluoro-2,3-dimethylquinolin-4-yl)-3-methylpiperidin-4-yl][3-(trifluoromethyl)-5,6-dihydro[1,2,4]tria-zolo[4,3-a]pyrazin-7(8H)-yl]methanone] |
| 3680 | CCOC(=O)c1cnc2ccc(F)cc2c1N1CC[C@H](C(=O)N2CCn3c(nnc3C(F)(F)F)C2)[C@H](C)C1 [Example 1, ethyl 6-fluoro-4-[(3S,4S)-3-methyl-4-{[3-(trifluoromethyl)-5,6-dihydro[1,2,4]triazolo[4,3-a]pyrazin-7(8H)-yl]carbonyl}piperidin-1-yl]quinoline-3-carboxylate] |
| 0.25 | C[C@@H]1CN(c2c(Cl)cnc3cc(C4CC4)ccc23)CC[C@@H]1C(=O)N1CCn2c(nnc2C(F)(F)F)C1 [Example 50, [(3S,4S)-1-(3-chloro-7-cyclopropyl-quinolin-4-yl)-3-methylpiperidin-4-yl][3-(trifluoromethyl)-5,6-dihydro[1,2,4]triazolo[4,3-a]pyrazin-7(8H) - yl]methanone] |
| 0.44 | C[C@@H]1CN(c2c(Cl)cnc3cc(Br)ccc23)CC[C@@H]1C(=O)N1CCn2c(nnc2C(F)(F)F)C1 [Example 42, [(3S,4S)-1-(7-bromo-3-chloroquinolin-4-yl)-3-methylpiperidin-4-yl][3-(trifluoromethyl)-5,6-dihydro[1,2,4]triazolo[4,3-a]pyrazin-7(81)-yl]methanone] |
| 0.2 | COc1ccc2c(N3CC[C@H](C(=O)N4CCn5c(nnc5C(F)(F)F)C4)[C@H](C)C3)c(Cl)cnc2c1 [Example 3, ((3S,4S)-1-(3-chloro-7-methoxyquinolin-4-yl)-3-methylpiperidin-4-yl)(3-(trifluoromethyl)-5,6-dihydro-[1,2,4]triazolo[4,3-a]pyrazin-7(8H)-yl)methanone] |
| 23.6 | C[C@@H]1CN(c2ccnc3cc(C(=O)NCC4CC4)ccc23)CC[C@@H]1C(=O)N1CCn2c(nnc2C(F)(F)F)C1 [Example 67, N-(cyclopropylmethyl)-4-((3 S,4S)-3-methyl-4-(3-(trifluoromethyl)-5,6,7,8-tetrahydro-[1,2,4]triazolo[4,3-a]pyrazine-7-carbonyl)piperidin-1-yl)quinoline-7-carboxamide] |
| 18 | C[C@@H]1CN(c2ccnc3cc(Cl)cnc23)CC[C@@H]1C(=O)N1CCn2c(nnc2C(F)(F)F)C1 [Example 2, ((3S,4S)-1-(7-chloro-1,5-naphthyridin-4-yl)-3-methylpiperidin-4-yl)(3-(trifluoromethyl)-5,6-dihydro-[1,2,4]triazolo[4,3-a]pyrazin-7(8H)-yl)methanone] |
| 0.2 | C[C@@H]1CN(c2c(Cl)cnc3cc(-c4ncco4)ccc23)CC[C@@H]1C(=O)N1CCc2c(noc2C(F)(F)F)C1 [Example 77, ((3S,4S)-1-(3-chloro-7-(oxazol-2-yl)quinolin-4-yl)-3-methylpiperidin-4-yl)(3-(trifluoromethyl)-4,5-dihydroisoxazolo [3,4-c]pyridin-6(7H)-yl)methanone] |
| 0.7 | C[C@@H]1CN(c2c(C(F)F)cnc3c(F)c(Cl)ccc23)CC[C@@H]1C(=O)N1CCn2c(nnc2C(F)(F)F)C1 [Example 7, ((3S,4S)-1-(7-chloro-3-(difluoromethyl)-8-fluoroquinolin-4-yl)-3-methylpiperidin-4-yl)(3-(trifluoromethyl)-5,6-dihydro-[1,2,4]triazolo[4,3-a]pyrazin-7(8H)-yl)methanone] |

From patent publication US10414775B2 (Merck Sharp & Dohme Corp., priority 2016, dated 2019)
